Data on 3 compounds can be found in patent US20100028447A1, “Intranasal, Buccal, And Sublingual Administration Of Metanicotine Analogs” (TARGACEPT, INC., priority 2007, published 2010).

Data set [1] in a line: In situ brain perfusion, single time-point method. The method, then: Animals used in this study were Sprague-Dawley rats (approximate weight 250-300 grams), obtained from Hilltop Lab Animals, Scottdale, Pa. Upon arrival, the rats were assigned randomly to treatment groups and acclimated for at least 24 hours. The animals were housed two per cage and identified by cage labels. A single room was used for this study. The animals were supplied with water and a commercial rodent diet ad libitum. On the day of the experiment, each rat was anesthetized intraperitoneally with Ketamine HCl/Xylazine HCl solution prior to being implanted with a cannula into the left carotid artery. Branch arteries were […], and the cardiac supply was cut off prior to brain perfusion.
Perfusion was performed using the single time-point method. […] Following 30 seconds of perfusion, the pump was stopped, and the brain was removed from the skull immediately. The brain was cut longitudinally in […]. Each left cerebral hemisphere was placed into a chilled tube, frozen on dry ice, and stored frozen at −60° C. to −80° C. until analyzed. […] Test articles were perfused at concentrations of 50 μM. The outline of the experimental treatments and the target and measured concentrations of the test articles and control compounds in the perfusate are presented in Table 3.
The left brain hemisphere from each rat was thawed and weighed. Methanol (20% aqueous) was added to each left brain hemisphere at approximately 4 mL per 1 g of brain tissue, and the mixture was homogenized using sonication with a VirSonic Ultrasonic Cell Disruptor 100 (VirTis). The test articles and two reference compounds were analyzed in the resulting homogenate by using LC/MS/MS.
The unidirectional brain transfer constants Kin (mL/g/min) were determined for the test articles and the high permeability reference, antipyrine, using the following equation for the single-point perfusion assay: […]
where: Cbr/Cpf is the apparent brain distribution volume (mL/g of brain tissue); Cbr is the concentration of drug in the brain tissue (pmol of drug per g of brain tissue); Cpf is the drug concentration in the perfusion fluid (pmol/mL of perfusate); and t is the net perfusion time (minutes).
Graphic representation and statistical analyses of the data were performed using GraphPad Prism software.

A short description of data set [2]: Permeation across cultured human respiratory epithelium (EpiAir tissue), apical-to-basolateral Papp. Conditions: human, pH 7.4, Papp. From the text:
(§1) An in vitro model of MatTek EpiAir® tissue was used for the permeability assessment of the test articles and control compounds. The EpiAir® culture consists of cells that have been cultured to form a pseudo-stratified, highly differentiated model closely resembling the epithelial tissue of the human respiratory tract. The histological cross-sections of the cultured tissue reveal a pseudo-stratified mucociliary phenotype.
(§2) EpiAir® tissues plated in 12 well plates were pre-equilibrated for the assay by culturing them for 24 hours at 37° C. with 5% CO2 in a humidified incubator. On the day of the assay, the cultures were washed two times with Dulbeccos' Phosphate Buffered Saline (DPBS buffer) at pH 7.4, and then dosed with donor and receiver buffer applied to the apical and basolateral surfaces of the culture, respectively. The receiver buffer consisted of DPBS, at pH 7.4. The donor solution consisted of DPBS buffer containing the appropriate compounds as specified in Table 1. All treatments were performed in triplicate. The receiver buffer was sampled at 15, 30, 60, and 120 minutes, and the donor buffer was sampled at 120 minutes.
(§3) The Lucifer Yellow concentration in the receiver samples was measured using a FluoStar fluorescence plate reader (BMG Laboratories, Durham, N.C.).
(§4) The apparent permeability coefficient, Papp, was calculated as follows: […]
(§5) where: dCr/dt is the slope of the cumulative concentration in the receiver compartment versus time; Vr is the volume of the receiver compartment; A is the surface area of epithelium available for permeation; and Co is the dosing solution concentration.

The test system of data set [3] is cultured human respiratory epithelium. The data set is described as follows: in vitro.
From the text: as §1, §2, §3, §4, §5

The mark [4] stands for this setting: Table 4 Treatment 1: Compound B perfused with references, Average ± STD.
Where [5] appears, read: Table 4 Treatment 1: Compound B perfused with references, Rat 1.
Setting [6] is: Table 4 Treatment 1: Compound B perfused with references, Rat 2.
Setting [7] is: Table 4 Treatment 1: Compound B perfused with references, Rat 3.
[8] abbreviates: Table 4 Treatment 2: Compound B perfused with references + MAO inhibitor Pargyline, Average ± STD.
The mark [9] stands for this setting: Table 4 Treatment 2: Compound B perfused with references + MAO inhibitor Pargyline, Rat 1.
Where [10] appears, read: Table 4 Treatment 2: Compound B perfused with references + MAO inhibitor Pargyline, Rat 2.
The mark [11] stands for this setting: Table 4 Treatment 2: Compound B perfused with references + MAO inhibitor Pargyline, Rat 3.
Setting [12] is: Table 5 Treatment 1: Compound A perfused with references, Average ± STD.
Setting [13] is: Table 5 Treatment 1: Compound A perfused with references, Rat 1.
[14] abbreviates: Table 5 Treatment 1: Compound A perfused with references, Rat 2.
Setting [15] is: Table 5 Treatment 1: Compound A perfused with references, Rat 3.
Setting [16] is: Table 5 Treatment 2: Compound A perfused with references + CYP2D6 inhibitor Quinidine, Average ± STD.
[17] abbreviates: Table 5 Treatment 2: Compound A perfused with references + CYP2D6 inhibitor Quinidine, Rat 1.
The mark [18] stands for this setting: Table 5 Treatment 2: Compound A perfused with references + CYP2D6 inhibitor Quinidine, Rat 2.
The mark [19] stands for this setting: Table 5 Treatment 2: Compound A perfused with references + CYP2D6 inhibitor Quinidine, Rat 3.
Setting [20] is: Treatment 3: MAO substrate Phenylethylamine assayed with controls, Average ± STD.
[21] abbreviates: Treatment 3: MAO substrate Phenylethylamine assayed with controls, Rep 1.
Setting [22] is: Treatment 3: MAO substrate Phenylethylamine assayed with controls, Rep 2.
[23] abbreviates: Treatment 3: MAO substrate Phenylethylamine assayed with controls, Rep 3.
Setting [24] is: Treatment 4: Phenylethylamine assayed with controls + MAO inhibitor Pargyline, Average ± STD.
Setting [25] is: Treatment 4: Phenylethylamine assayed with controls + MAO inhibitor Pargyline, Rep 1.
The mark [26] stands for this setting: Treatment 4: Phenylethylamine assayed with controls + MAO inhibitor Pargyline, Rep 2.
Where [27] appears, read: Treatment 4: Phenylethylamine assayed with controls + MAO inhibitor Pargyline, Rep 3.

As to `Cc1cc(=O)n(-c2ccccc2)n1C` [Antipyrine, reference compound], the “Brain Concentration (corrected for drug retained in vascular volume)” value (shortened to “Brain Concentration”) in data set [1] (setting [4]) is listed as 1083.1 ± 141.4 pmol/g; in data set [1] (setting [5]), 1123.1 pmol/g; in data set [1] (setting [6]), 1200.2 pmol/g; in data set [1] (setting [7]) it was 926.0 pmol/g; in data set [1] (setting [8]), 888.5 ± 47.9 pmol/g; in data set [1] (setting [9]), 833.1 pmol/g. Further, the “Brain Concentration” value came to 914.3 pmol/g in data set [1] (setting [10]); 918.0 pmol/g in data set [1] (setting [11]); 1157.1 ± 239.3 pmol/g in data set [1] (setting [12]); 1426.6 pmol/g in data set [1] (setting [13]); 1074.9 pmol/g in data set [1] (setting [14]); 969.7 pmol/g in data set [1] (setting [15]). The “Brain Concentration” value came out at 1124.7 ± 135.5 pmol/g in data set [1] (setting [16]), 977.7 pmol/g in data set [1] (setting [17]), 1244.5 pmol/g in data set [1] (setting [18]) and 1151.8 pmol/g in data set [1] (setting [19]). Also, the Kin in data set [1] (setting [4]) is 0.342 ± 0.045 mL/g/min; in data set [1] (setting [5]) it was 0.355 mL/g/min; in data set [1] (setting [6]), 0.379 mL/g/min; in data set [1] (setting [7]), 0.292 mL/g/min; in data set [1] (setting [8]), 0.300 ± 0.016 mL/g/min; in data set [1] (setting [9]), 0.282 mL/g/min. Moreover, the Kin in data set [1] (setting [10]) was 0.309 mL/g/min; in data set [1] (setting [11]), 0.310 mL/g/min; in data set [1] (setting [12]) it was 0.376 ± 0.078 mL/g/min; in data set [1] (setting [13]), 0.463 mL/g/min; in data set [1] (setting [14]), 0.349 mL/g/min; in data set [1] (setting [15]), 0.315 mL/g/min. Also, the Kin in data set [1] (setting [16]) was 0.386 ± 0.047 mL/g/min; in data set [1] (setting [17]), 0.336 mL/g/min; in data set [1] (setting [18]), 0.427 mL/g/min; in data set [1] (setting [19]), 0.395 mL/g/min.

In the case of `NCCc1ccccc1` [Phenylethylamine], the Papp at 120 min worked out at 18.94 ± 0.1 ×10⁻⁶ cm/s in data set [2] (setting [20]); 18.8 ×10⁻⁶ cm/s in data set [2] (setting [21]); 18.9 ×10⁻⁶ cm/s in data set [2] (setting [22]); 19 ×10⁻⁶ cm/s in data set [2] (setting [23]); 35.2 ± 0.98 ×10⁻⁶ cm/s in data set [2] (setting [24]); 34.5 ×10⁻⁶ cm/s in data set [2] (setting [25]). Also, the apparent permeability (Papp) at 120 min in data set [2] (setting [26]) stood at 36.3 ×10⁻⁶ cm/s; in data set [2] (setting [27]) it was 34.7 ×10⁻⁶ cm/s. The “Permeation (Papp) in the presence of the MAO inhibitor Pargyline compared to alone” value in data set [3] is “significant increased”.

On to Lucifer Yellow, for which the Papp in data set [3] (Treatment 1: Compound B assayed with controls, Average ± STD) is 14.40 ± 0.37 ×10^−6 cm/s; in data set [3] (Treatment 1: Compound B assayed with controls, Rep 1), 1.481e-05 cm/s; in data set [3] (Treatment 1: Compound B assayed with controls, Rep 2), 1.411e-05 cm/s; in data set [3] (Treatment 1: Compound B assayed with controls, Rep 3), 1.426e-05 cm/s; in data set [3] (Treatment 2: Compound B assayed with controls + MAO inhibitor Pargyline, Average ± STD), 15.10 ± 0.11 ×10^−6 cm/s; in data set [3] (Treatment 2: Compound B assayed with controls + MAO inhibitor Pargyline, Rep 1) it was 1.509e-05 cm/s. In addition, the Papp in data set [3] (Treatment 2: Compound B assayed with controls + MAO inhibitor Pargyline, Rep 2) is 1.5e-05 cm/s; in data set [3] (Treatment 2: Compound B assayed with controls + MAO inhibitor Pargyline, Rep 3) it was 1.521e-05 cm/s; in data set [3] (setting [20]), 14.82 ± 0.88 ×10^−6 cm/s; in data set [3] (setting [21]) it was 1.561e-05 cm/s; in data set [3] (setting [22]), 1.388e-05 cm/s; in data set [3] (setting [23]) it was 1.499e-05 cm/s. For the same compound, the apparent permeability coefficient (Papp) in data set [3] (setting [24]) was 13.76 ± 0.46 ×10^−6 cm/s; in data set [3] (setting [25]) it was 1.327e-05 cm/s; in data set [3] (setting [26]), 1.382e-05 cm/s; in data set [3] (setting [27]), 1.42e-05 cm/s; in data set [3] (Treatment 5: Compound A assayed with controls, Average ± STD), 14.56 ± 1.33 ×10^−6 cm/s; in data set [3] (Treatment 5: Compound A assayed with controls, Rep 1), 1.491e-05 cm/s. For the same compound, the Papp in data set [3] (Treatment 5: Compound A assayed with controls, Rep 2) was 1.309e-05 cm/s; in data set [3] (Treatment 5: Compound A assayed with controls, Rep 3), 1.568e-05 cm/s; in data set [3] (Treatment 7: CYP2D6 substrate Bufuralol assayed with controls, Average ± STD) it was 13.88 ± 0.56 ×10^−6 cm/s; in data set [3] (Treatment 7: CYP2D6 substrate Bufuralol assayed with controls, Rep 1) it was 1.355e-05 cm/s; in data set [3] (Treatment 7: CYP2D6 substrate Bufuralol assayed with controls, Rep 2), 1.357e-05 cm/s; in data set [3] (Treatment 7: CYP2D6 substrate Bufuralol assayed with controls, Rep 3), 1.452e-05 cm/s.
